This note sets out measurements from US6797720B2, “1,3,4-oxadiazoline derivative and an agent comprising its derivative as active ingredient” (ONO Pharmaceutical Co., Ltd., priority 1999, dated 2004).

What all share (type): biochemical
One test has as its target T1, cathepsin K (Homo sapiens, UniProt P43235).
T1 sequence (P43235 115-329): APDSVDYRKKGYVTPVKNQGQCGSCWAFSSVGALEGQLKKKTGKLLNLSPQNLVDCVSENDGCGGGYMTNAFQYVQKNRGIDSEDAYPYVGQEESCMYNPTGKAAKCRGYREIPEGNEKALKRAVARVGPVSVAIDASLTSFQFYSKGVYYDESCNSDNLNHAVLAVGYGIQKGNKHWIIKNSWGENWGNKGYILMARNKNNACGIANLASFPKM
Description: Measurement of cathepsin K inhibitory activity. Conditions: Dixon plot, pH 5.5, 37° C. As for the experimental part:
(i) Measurement of Cathepsin K Inhibitory Activity
Cathepsin K enzyme reaction buffer (50 mmol/L 2-(N-morpholino)ethanesulfonate, 2 mmol/L ethylenediamine tetraacetate (EDTA) and 4 mmol/L dithiothreitol (DTT) were mixed to adjust to pH 5.5) (65 μL), cysteine protease inhibitor solution (5 μL) of several concentrations, synthesized substrate (t-butyloxycarbonyl-L-alanyl-glycyl-L-prolyl-L-arginine-4-me thyl-chromanyl-7-amide) solution (20 μL) of several concentrations and cathepsin K enzyme solution (10 μL) were mixed and the increase of fluorescence intensity when reacted at 37° C. was measured (λex(excitation wavelength)355 nm, λem (fluorescence wavelength) 460 nm). As to the substrate and the compound of the present invention, enzyme reactions were carried out in combination of several appropriate concentrations, Dixon plotting was prepared, to define the absolute value of X-coordinate of the intersection point of the graph as Ki value.

A further test concerns the target cathepsin B (Homo sapiens, UniProt P07858). Description: Measurement of cathepsin B inhibitory activity. As for the experimental part: (ii) Measurement of Cathepsin B Inhibitory Activity
Synthesized substrate of several concentrations (carbobenzoxy-L-arginyl-L-arginine-4-methyl-chromanyl-7-amide or carbobenzoxy-L-phenylalanyl-L-arginine-4-methyl-chromanyl-7-amide) solution (10 μL), cysteine protease inhibitor solution of several concentrations (10 μL), cathepsin B enzyme reaction buffer (mixture of 400 mmol/L in acetic acid, 4 mmol/L EDTA, 8 mmol/L DDT to adjust to pH 5.5) 70 μL and cathepsin B enzyme solution 10 μL were mixed and the increase of fluorescence intensity was measured (λex=355 nm, λem=460 nm) when reacted at 37° C.

For a further test, the target named is cathepsin S (Homo sapiens, UniProt P25774). Description: Measurement of cathepsin S inhibitory activity. The procedure:
(iii) Measurement of Cathepsin S Inhibitory Activity
Synthesized substrate of several concentrations (carbobenzoxy-L-leucyl-L-leucyl-L-arguinine-4-methyl-chroman yl-7-amide) solution (10 μL), cysteine protease inhibitor solution (5 μL) of several concentrations, cathepsin S enzyme reaction buffer (100 mmol/L sodium phosphate, 2 mmol/L EDTA, 2 mmol/L DTT were mixed to adjust to pH 6.5) (75 μL) and cathepsin S enzyme solution (10 μL) were mixed and the increase of fluorescence intensity was measured (λex=355 nm, λem=460 nm) when reacted at 37° C.

The target of the next test is cathepsin L (Homo sapiens, UniProt P07711). Description: Measurement of cathepsin L inhibitory activity. As for the experimental part: (iv) Measurement of Cathepsin L Inhibitory Activity
Synthesized substrate of several concentrations (carbobenzoxy-L-phenylalanyl-L-arguine-4-methyl-chromanyl-7-amide or L-prolyl-L-phenylalanyl-L-arguinine-4-methyl-chromanyl-7-amide) solution (5 μL), cysteine protease inhibitor solution (5 μL) of several concentrations, cathepsin L enzyme reaction buffer (400 mmol/L acetic acid, 4 mmol/L EDTA, 8 mmol/L DTT were mixed to adjust to pH 5.5) 80 μL and cathepsin L enzyme solution (10 μL) were mixed and the increase of fluorescence intensity was measured (λex=355 nm, λem=460 nm) when reacted at 37° C.

Chain of cathepsin S (P25774 115-331, species assumed): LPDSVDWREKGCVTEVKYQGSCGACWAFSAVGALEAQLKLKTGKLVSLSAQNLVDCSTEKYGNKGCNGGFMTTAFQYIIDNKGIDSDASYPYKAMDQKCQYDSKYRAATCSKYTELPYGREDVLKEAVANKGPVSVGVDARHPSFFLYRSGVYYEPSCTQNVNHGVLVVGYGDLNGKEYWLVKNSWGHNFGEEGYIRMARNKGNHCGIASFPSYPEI
Chain of cathepsin L (P07711 114-333, species assumed): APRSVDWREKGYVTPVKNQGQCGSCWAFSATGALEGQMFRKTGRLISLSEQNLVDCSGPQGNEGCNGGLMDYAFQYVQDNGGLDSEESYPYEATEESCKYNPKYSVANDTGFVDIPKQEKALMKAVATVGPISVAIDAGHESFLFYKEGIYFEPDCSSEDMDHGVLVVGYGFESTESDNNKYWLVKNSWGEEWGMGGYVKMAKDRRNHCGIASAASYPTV

For `CC(C)C[C@H](NC(=O)OCc1ccccc1)C(=O)N[C@@H](CC(C)C)C(=O)c1n[nH]c(=O)o1` [Example 1 (1), (2S)-N-[(2S)-4-methyl-1-oxo-1-(2-oxo-1,3,4-oxadiazolin-5-yl)-2-pentyl]-4-methyl-2-(benzyloxycarbonylamino)pentanamide], the Ki at cathepsin K was found to be 13 nM. Also, the values for the inhibition at 1 µM against cathepsin B, against cathepsin S and on cathepsin L were 97%, 99% and 100%, respectively.

On to `CC(C)C[C@H](NC(=O)[C@@H]1CCCC[C@@H]1NC(=O)c1ccccc1)C(=O)c1n[nH]c(=O)o1` [example 1], for which, at cathepsin K, the Ki amounted to 86 nM.

As usually defined, the Ki is the equilibrium dissociation constant of an inhibitor or competing ligand from its target. Usually inhibition stands for the change of the read-out against control, counted positive when it falls.
